Assays:
Experiment in all cases: KINOMEscan
Assay type in all cases: binding
ULK2 = ULK2 (Homo sapiens (Human), UniProt Q8IYT8); settings: read-out: percent of control
Protocol: (§1) In vitro profiling of Compound I-2 (1 μM) was performed using the DiscoveRx KINOMEscan® platform.

VPS34 = VPS34 (Homo sapiens (Human), UniProt Q8NEB9); settings: read-out: percent of control
Protocol: as §1

p38-alpha = p38-alpha (Homo sapiens (Human), UniProt Q16539); settings: read-out: percent of control
Protocol: as §1

EPHB3 = EPHB3 (Homo sapiens (Human), UniProt P54753); settings: read-out: percent of control
Protocol: as §1

TRKC = TRKC (Homo sapiens (Human), UniProt Q16288); settings: read-out: percent of control
Sequence of TRKC (Q16288 32-839): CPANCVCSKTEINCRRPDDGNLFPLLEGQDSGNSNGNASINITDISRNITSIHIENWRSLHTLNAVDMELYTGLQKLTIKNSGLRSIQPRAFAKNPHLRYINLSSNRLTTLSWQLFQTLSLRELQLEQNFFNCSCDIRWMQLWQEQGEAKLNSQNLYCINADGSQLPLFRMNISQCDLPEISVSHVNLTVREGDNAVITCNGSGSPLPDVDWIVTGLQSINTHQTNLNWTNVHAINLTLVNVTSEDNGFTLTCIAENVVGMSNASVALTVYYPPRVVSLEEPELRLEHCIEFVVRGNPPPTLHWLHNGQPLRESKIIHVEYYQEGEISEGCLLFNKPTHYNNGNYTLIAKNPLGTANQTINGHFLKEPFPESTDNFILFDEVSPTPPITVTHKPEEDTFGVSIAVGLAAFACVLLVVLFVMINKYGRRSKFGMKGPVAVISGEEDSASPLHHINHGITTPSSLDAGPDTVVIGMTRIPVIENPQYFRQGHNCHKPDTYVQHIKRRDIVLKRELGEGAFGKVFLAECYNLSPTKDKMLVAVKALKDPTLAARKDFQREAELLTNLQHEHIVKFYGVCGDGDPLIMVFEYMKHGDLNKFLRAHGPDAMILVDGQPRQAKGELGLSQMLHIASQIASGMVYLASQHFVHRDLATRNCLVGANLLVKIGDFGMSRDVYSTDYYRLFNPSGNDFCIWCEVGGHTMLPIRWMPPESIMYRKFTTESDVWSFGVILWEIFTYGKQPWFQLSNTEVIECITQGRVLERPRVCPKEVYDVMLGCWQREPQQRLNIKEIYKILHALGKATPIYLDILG
Protocol: as §1

IGF1R = IGF1R (Homo sapiens (Human), UniProt P08069); settings: read-out: percent of control
Sequence of IGF1R (P08069 31-1367): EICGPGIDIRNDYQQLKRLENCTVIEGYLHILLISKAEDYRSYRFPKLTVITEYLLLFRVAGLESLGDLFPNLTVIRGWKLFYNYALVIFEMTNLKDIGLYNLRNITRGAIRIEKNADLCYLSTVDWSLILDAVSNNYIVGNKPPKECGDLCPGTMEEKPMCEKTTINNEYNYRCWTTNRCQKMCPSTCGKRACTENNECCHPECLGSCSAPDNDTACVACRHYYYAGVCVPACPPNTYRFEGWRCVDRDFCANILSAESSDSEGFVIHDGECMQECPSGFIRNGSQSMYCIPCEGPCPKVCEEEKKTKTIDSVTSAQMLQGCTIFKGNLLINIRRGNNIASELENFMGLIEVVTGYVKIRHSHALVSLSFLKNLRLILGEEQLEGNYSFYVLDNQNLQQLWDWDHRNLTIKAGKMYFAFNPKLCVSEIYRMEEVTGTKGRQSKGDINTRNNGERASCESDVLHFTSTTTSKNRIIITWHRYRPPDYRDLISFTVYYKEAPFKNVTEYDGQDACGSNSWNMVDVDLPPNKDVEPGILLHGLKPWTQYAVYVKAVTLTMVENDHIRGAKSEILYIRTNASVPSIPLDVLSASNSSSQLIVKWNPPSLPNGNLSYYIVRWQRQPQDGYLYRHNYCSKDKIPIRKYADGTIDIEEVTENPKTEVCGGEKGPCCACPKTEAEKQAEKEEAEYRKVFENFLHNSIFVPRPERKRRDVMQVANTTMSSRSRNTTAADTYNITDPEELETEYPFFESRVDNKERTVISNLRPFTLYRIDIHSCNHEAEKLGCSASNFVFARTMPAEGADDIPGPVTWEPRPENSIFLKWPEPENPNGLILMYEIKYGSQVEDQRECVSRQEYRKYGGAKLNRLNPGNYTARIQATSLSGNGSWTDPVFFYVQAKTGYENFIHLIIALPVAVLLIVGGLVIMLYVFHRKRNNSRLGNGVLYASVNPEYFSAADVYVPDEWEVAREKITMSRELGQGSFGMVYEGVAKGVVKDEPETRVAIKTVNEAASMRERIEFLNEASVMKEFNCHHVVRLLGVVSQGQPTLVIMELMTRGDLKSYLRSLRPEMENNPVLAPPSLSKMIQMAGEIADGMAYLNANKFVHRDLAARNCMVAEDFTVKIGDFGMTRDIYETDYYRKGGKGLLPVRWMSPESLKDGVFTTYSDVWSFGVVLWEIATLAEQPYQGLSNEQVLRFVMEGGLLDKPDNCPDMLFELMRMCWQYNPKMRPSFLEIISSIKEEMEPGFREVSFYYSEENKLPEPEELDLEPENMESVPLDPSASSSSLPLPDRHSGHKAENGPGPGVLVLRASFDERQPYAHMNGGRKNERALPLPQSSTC
Protocol: as §1

JNK3 = JNK3 (Homo sapiens (Human), UniProt P53779); settings: read-out: percent of control
Protocol: as §1

PIM3 = PIM3 (Homo sapiens (Human), UniProt Q86V86); settings: read-out: percent of control
Protocol: as §1

EGFR(E746-A750del) = EGFR(E746-A750del) (Homo sapiens (Human), UniProt P00533, DEL746-750); settings: read-out: percent of control
Protocol: as §1

CSNK2A2 = CSNK2A2 (Homo sapiens (Human), UniProt P19784); settings: read-out: percent of control
Sequence of CSNK2A2 (P19784 whole entry): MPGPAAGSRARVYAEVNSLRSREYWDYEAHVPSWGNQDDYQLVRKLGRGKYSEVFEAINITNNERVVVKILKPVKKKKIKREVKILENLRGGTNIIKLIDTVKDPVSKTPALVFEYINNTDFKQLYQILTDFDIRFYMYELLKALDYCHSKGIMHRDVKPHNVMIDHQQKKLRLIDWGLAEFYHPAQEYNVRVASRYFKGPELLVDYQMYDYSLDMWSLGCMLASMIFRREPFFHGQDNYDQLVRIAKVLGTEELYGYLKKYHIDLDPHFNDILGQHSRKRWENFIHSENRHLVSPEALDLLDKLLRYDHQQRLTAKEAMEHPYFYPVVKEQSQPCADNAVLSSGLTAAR
Protocol: as §1

EGFR(L747-T751del,Sins) = settings: 1 μM
Protocol: as §1

ERBB3 = ERBB3 (Homo sapiens (Human), UniProt P21860); settings: read-out: percent of control
Protocol: as §1

BTK = BTK (Homo sapiens (Human), UniProt Q06187); settings: read-out: percent of control
Protocol: as §1

MAK = MAK (Homo sapiens (Human), UniProt P20794); settings: read-out: percent of control
Protocol: as §1

LOK = LOK (Homo sapiens (Human), UniProt O94804); settings: read-out: percent of control
Protocol: as §1

ERBB4 = ERBB4 (Homo sapiens (Human), UniProt Q15303); settings: read-out: percent of control
Protocol: as §1

ARK5 = ARK5 (Homo sapiens (Human), UniProt O60285); settings: read-out: percent of control
Protocol: as §1

CAMK1B = CAMK1B (Homo sapiens (Human), UniProt Q6P2M8); settings: read-out: percent of control
Protocol: as §1

TIE1 = TIE1 (Homo sapiens (Human), UniProt P35590); settings: read-out: percent of control
Protocol: as §1

NEK5 = NEK5 (Homo sapiens (Human), UniProt Q6P3R8); settings: read-out: percent of control
Protocol: as §1

EGFR(T790M) = EGFR(T790M) (Homo sapiens (Human), UniProt P00533, T790M); settings: read-out: percent of control
Protocol: as §1

ACVR2A = ACVR2A (Homo sapiens (Human), UniProt P27037); settings: read-out: percent of control
Protocol: as §1

MARK1 = MARK1 (Homo sapiens (Human), UniProt Q9P0L2); settings: read-out: percent of control
Protocol: as §1

PFTK1 = PFTK1 (Homo sapiens (Human), UniProt O94921); settings: read-out: percent of control
Protocol: as §1

GFR(L747-S752del, P753S) = target: GFR(L747-S752del, P753S (Homo sapiens (Human), UniProt P00533, DEL747-752/P753S)); settings: read-out: percent of control
Sequence of GFR(L747-S752del, P753S (P00533 other isoform, or with tags, fused parts or gaps P753S/del 1-668/del 747-752/del 1012-1210 limits assumed): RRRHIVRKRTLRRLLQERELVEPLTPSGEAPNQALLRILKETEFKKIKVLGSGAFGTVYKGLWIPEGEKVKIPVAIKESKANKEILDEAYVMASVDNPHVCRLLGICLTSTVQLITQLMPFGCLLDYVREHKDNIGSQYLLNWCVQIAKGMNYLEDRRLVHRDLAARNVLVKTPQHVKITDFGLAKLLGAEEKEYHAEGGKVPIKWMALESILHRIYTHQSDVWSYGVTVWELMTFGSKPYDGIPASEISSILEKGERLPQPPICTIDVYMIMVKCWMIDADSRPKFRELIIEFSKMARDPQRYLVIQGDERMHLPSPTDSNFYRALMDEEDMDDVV
Protocol: as §1

EGFR(L858R, T790M) = EGFR(L858R, T790M) (Homo sapiens (Human), UniProt P00533, L858R/T790M); settings: read-out: percent of control
Protocol: as §1

FES = FES (Homo sapiens (Human), UniProt P07332); settings: read-out: percent of control
Protocol: as §1

PIK3C2B = PIK3C2B (Homo sapiens (Human), UniProt O00750); settings: read-out: percent of control
Sequence of PIK3C2B (O00750 whole entry): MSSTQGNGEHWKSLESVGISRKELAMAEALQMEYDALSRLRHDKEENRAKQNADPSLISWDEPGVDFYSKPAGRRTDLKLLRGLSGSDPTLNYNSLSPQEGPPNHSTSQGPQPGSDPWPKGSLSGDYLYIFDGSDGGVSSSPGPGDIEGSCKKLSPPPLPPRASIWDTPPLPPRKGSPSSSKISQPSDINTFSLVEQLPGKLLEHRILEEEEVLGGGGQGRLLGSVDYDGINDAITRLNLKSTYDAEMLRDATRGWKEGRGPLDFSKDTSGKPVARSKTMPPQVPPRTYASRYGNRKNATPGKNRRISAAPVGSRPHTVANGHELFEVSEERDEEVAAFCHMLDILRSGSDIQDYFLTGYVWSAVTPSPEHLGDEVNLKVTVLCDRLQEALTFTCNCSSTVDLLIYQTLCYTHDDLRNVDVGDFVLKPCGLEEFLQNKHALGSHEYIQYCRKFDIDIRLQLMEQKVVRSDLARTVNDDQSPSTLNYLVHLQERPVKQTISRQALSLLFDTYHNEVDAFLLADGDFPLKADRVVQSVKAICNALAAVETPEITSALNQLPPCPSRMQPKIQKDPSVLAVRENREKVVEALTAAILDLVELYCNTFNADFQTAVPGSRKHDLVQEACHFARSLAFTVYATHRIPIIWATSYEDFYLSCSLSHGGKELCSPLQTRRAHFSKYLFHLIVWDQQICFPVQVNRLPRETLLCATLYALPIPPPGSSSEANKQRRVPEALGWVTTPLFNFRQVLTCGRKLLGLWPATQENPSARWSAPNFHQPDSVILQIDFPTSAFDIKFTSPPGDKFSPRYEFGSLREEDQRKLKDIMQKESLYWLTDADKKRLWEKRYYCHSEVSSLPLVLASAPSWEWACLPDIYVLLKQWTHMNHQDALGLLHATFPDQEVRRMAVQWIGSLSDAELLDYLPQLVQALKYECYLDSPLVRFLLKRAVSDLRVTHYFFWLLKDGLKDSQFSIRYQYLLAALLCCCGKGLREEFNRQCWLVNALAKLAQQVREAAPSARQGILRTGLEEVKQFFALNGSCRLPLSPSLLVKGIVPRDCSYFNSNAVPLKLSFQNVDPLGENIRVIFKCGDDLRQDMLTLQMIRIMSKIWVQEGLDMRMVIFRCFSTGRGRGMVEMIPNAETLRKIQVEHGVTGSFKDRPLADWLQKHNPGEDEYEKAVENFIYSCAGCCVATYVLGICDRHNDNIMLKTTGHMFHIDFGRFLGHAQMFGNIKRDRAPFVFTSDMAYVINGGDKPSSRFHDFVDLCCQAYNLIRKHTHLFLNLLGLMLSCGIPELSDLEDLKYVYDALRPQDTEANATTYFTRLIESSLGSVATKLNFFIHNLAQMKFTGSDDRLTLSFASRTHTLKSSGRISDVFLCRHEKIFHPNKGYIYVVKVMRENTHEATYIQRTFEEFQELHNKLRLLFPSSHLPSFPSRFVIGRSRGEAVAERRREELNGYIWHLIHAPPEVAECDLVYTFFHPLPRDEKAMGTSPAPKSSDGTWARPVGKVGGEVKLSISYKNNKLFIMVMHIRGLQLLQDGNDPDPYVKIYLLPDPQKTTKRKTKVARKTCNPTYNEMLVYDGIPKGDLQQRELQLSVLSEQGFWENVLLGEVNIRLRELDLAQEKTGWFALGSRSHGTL
Protocol: as §1

FLT4 = FLT4 (Homo sapiens (Human), UniProt P35916); settings: read-out: percent of control
Protocol: as §1

CDKL5 = CDKL5 (Homo sapiens (Human), UniProt O76039); settings: read-out: percent of control
Protocol: as §1

SRPK1 = SRPK1 (Homo sapiens (Human), UniProt Q96SB4); settings: read-out: percent of control
Protocol: as §1

EPHA4 = EPHA4 (Homo sapiens (Human), UniProt P54764); settings: read-out: percent of control
Protocol: as §1

NDR2 = NDR2 (Homo sapiens (Human), UniProt Q9Y2H1); settings: read-out: percent of control
Protocol: as §1

FAK = FAK (Homo sapiens (Human), UniProt Q05397); settings: read-out: percent of control
Protocol: as §1

GRK1 = GRK1 (Homo sapiens (Human), UniProt Q15835); settings: read-out: percent of control
Protocol: as §1

DMPK2 = DMPK2 (Homo sapiens (Human), UniProt Q6DT37); settings: read-out: percent of control
Protocol: as §1

CAMK4 = CAMK4 (Homo sapiens (Human), UniProt Q16566); settings: read-out: percent of control
Sequence of CAMK4 (Q16566 whole entry): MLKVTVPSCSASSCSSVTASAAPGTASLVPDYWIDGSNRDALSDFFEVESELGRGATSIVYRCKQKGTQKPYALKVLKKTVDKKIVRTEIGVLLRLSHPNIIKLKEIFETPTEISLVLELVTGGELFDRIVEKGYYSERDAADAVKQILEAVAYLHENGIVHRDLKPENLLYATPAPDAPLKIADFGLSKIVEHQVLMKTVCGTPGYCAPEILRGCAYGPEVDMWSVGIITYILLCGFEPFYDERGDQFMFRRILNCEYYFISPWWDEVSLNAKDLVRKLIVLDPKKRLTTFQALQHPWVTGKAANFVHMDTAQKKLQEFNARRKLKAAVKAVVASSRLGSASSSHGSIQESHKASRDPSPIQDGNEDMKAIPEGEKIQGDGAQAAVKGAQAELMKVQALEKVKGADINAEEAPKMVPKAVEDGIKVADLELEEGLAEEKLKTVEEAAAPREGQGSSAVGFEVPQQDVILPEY
Protocol: as §1

[1] = target: JAK1 (JH1domain-catalytic) (Homo sapiens (Human), UniProt P23458); settings: read-out: percent of control
Protocol: as §1

CDK2 = CDK2 (Homo sapiens (Human), UniProt P24941); settings: read-out: percent of control
Protocol: as §1

| SMILES | remaining binding at 1 µM (ULK2) | remaining binding at 1 µM (VPS34) | remaining binding at 1 µM (p38-alpha) | remaining binding at 1 µM (EPHB3) | remaining binding at 1 µM (TRKC) | remaining binding at 1 µM (IGF1R) | remaining binding at 1 µM (JNK3) | remaining binding at 1 µM (PIM3) | remaining binding at 1 µM (EGFR(E746-A750del)) | remaining binding at 1 µM (CSNK2A2) | percent of control (EGFR(L747-T751del,Sins)) | remaining binding at 1 µM (ERBB3) | remaining binding at 1 µM (BTK) | remaining binding at 1 µM (MAK) | remaining binding at 1 µM (LOK) | remaining binding at 1 µM (ERBB4) | remaining binding at 1 µM (ARK5) | remaining binding at 1 µM (CAMK1B) | remaining binding at 1 µM (TIE1) | remaining binding at 1 µM (NEK5) | further results |
| --- | --- | --- | --- | --- | --- | --- | --- | --- | --- | --- | --- | --- | --- | --- | --- | --- | --- | --- | --- | --- | --- |
| CCN1CCN(Cc2cc(NC(=O)c3ccc(C)c(-c4ccc5nc(NC(=O)C6CC6)cn5n4)c3)cc(C(F)(F)F)c2)CC1 [Compound I-2, 3-(2-(cyclopropanecarboxamido)imidazo[1,2-b]pyridazin-6-yl)-N-(3-((4-ethylpiperazin-1-yl)methyl)-5-(trifluoromethyl)phenyl)-4-methylbenzamide] | 100% | 91% | 8.4% | 30% | 0.05% | 0.7% | 85% | 90% | 29% | 94% | 29% | 100% | 68% | 11% | 0% | 71% | 94% | 49% | 0% | 89% | remaining binding at 1 µM (EGFR(T790M)): 15%; remaining binding at 1 µM (ACVR2A): 63%; remaining binding at 1 µM (MARK1): 91%; remaining binding at 1 µM (PFTK1): 0.35%; remaining binding at 1 µM (GFR(L747-S752del, P753S)): 19%; remaining binding at 1 µM (EGFR(L858R, T790M)): 100%; remaining binding at 1 µM (FES): 12%; remaining binding at 1 µM (PIK3C2B): 100%; remaining binding at 1 µM (FLT4): 0.05%; remaining binding at 1 µM (CDKL5): 95%; remaining binding at 1 µM (SRPK1): 85%; remaining binding at 1 µM (EPHA4): 0%; remaining binding at 1 µM (NDR2): 98%; remaining binding at 1 µM (FAK): 1.9%; remaining binding at 1 µM (GRK1): 91%; remaining binding at 1 µM (DMPK2): 87%; remaining binding at 1 µM (CAMK4): 94%; remaining binding at 1 µM [1]: 19%; remaining binding at 1 µM (CDK2): 7% |
| CCN1CCN(Cc2cc(NC(=O)c3ccc(C)c(-c4ccc5nc(NC(=O)C6CC6)cn5c4)c3)cc(C(F)(F)F)c2)CC1 [Compound I-6, 3-(2-(cyclopropanecarboxamido)imidazo[1,2-a]pyridin-6-yl)-N-(3-((4-ethylpiperazin-1-yl)methyl)-5-(trifluoromethyl)phenyl)-4-methylbenzamide] | 100% | 93% | 26% | 35% | 0.05% | 11% | 93% | 89% | 25% | 100% | 12% | 93% | 87% | 22% | 0% | 53% | 100% | 97% | 4% | 100% | remaining binding at 1 µM (EGFR(T790M)): 15%; remaining binding at 1 µM (ACVR2A): 100%; remaining binding at 1 µM (MARK1): 77%; remaining binding at 1 µM (PFTK1): 2.4%; remaining binding at 1 µM (GFR(L747-S752del, P753S)): 12%; remaining binding at 1 µM (EGFR(L858R, T790M)): 59%; remaining binding at 1 µM (FES): 0.95%; remaining binding at 1 µM (PIK3C2B): 100%; remaining binding at 1 µM (FLT4): 0.3%; remaining binding at 1 µM (CDKL5): 100%; remaining binding at 1 µM (SRPK1): 57%; remaining binding at 1 µM (EPHA4): 0%; remaining binding at 1 µM (NDR2): 59%; remaining binding at 1 µM (FAK): 7.9%; remaining binding at 1 µM (GRK1): 93%; remaining binding at 1 µM (DMPK2): 100%; remaining binding at 1 µM (CAMK4): 96%; remaining binding at 1 µM [1]: 20%; remaining binding at 1 µM (CDK2): 60% |
